Reference: publication PMC4183655, “Discovery and Optimization of Small-Molecule Ligands for the CBP/p300 Bromodomains” (Journal of the American Chemical Society, 2014)
Like-named read-outs stand apart in the source and are kept apart here.

Legend:
BRD4(1) [1] = target: T1, BRD4(1) (Homo sapiens, UniProt O60885); test: Isothermal titration calorimetry (ITC); details: for ITC 9T∆S, BRD4(1): At T = 298.15 K; for Selectivity for CBP over BRD4(1): from ITC Kd values
CBP [2] = target: T2, CBP (Homo sapiens, UniProt Q92793); test: Isothermal titration calorimetry (ITC); details: for ITC 9T∆S, CBP: At T = 298.15 K
CBP [3] = target: T2, CBP; test: DSF (ΔTm) thermal stability assay; type: binding; details: compound concentration 10 μM; mean ± SEM (number of measurements)
CBP [4] = target: T2, CBP; test: Peptide displacement AlphaScreen; type: binding
BRD4(1) [5] = target: T1, BRD4(1); test: DSF (ΔTm) thermal stability assay; type: binding; details: compound concentration 10 μM; mean ± SEM (number of measurements)
CBP BRD = details: cited from earlier work
BRD4(1) [6] = target: T1, BRD4(1); test: Peptide displacement AlphaScreen; type: binding
[7] = test system: GFP-tagged 3 × CBP BRD construct; test: Fluorescence recovery after photo-bleaching (FRAP) assay; details: HeLa cells
BRD4(1) [8] = details: cited from earlier work
CBP [9] = details: cited from earlier work
[10] = mean ± SEM (number of measurements), read-out: CBP AlphaScreen pIC50 (converted)

T2 sequence (Q92793 1085-1192 limits assumed): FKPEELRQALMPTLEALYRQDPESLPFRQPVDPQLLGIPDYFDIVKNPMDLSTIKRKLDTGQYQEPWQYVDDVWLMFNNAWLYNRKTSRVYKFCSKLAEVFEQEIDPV

SMILES	ITC N (molar binding ratio of the ligand-protein interaction), BRD4(1) (BRD4(1) [1])	ITC ∆G, BRD4(1) (BRD4(1) [1])	ITC ∆H, BRD4(1) (BRD4(1) [1])	ITC 9T∆S, BRD4(1) (BRD4(1) [1])	ITC N (molar binding ratio of the ligand-protein interaction), CBP (CBP [2])	ITC ∆G, CBP (CBP [2])	ITC ∆H, CBP (CBP [2])	ITC 9T∆S, CBP (CBP [2])	Kd (CBP [2]; ITC Ka, CBP)	ΔTm at 10 µM (CBP [3])	further results
Cc1noc(C)c1-c1ccc2c(c1)nc(CCc1ccc(F)cc1)n2CCN1CCOCC1 [Compound 31]	0.674 ± 0.00495	-8.35 kcal/mol	-8.02 ± 0.0815 kcal/mol	-0.331 kcal/mol	0.887 ± 0.00152	-9.98 kcal/mol	-9.63 ± 0.0319 kcal/mol	-0.346 kcal/mol	27.7 nM	–	Kd (BRD4(1) [1]; ITC Ka, BRD4(1)): 478 nM
COc1ccc(CCc2nc3cc(-c4c(C)noc4C)ccc3n2CCN2CCOCC2)cc1Cl [Compound 32]	0.604 ± 0.00325	-8.32 kcal/mol	-9.99 ± 0.0746 kcal/mol	1.670 kcal/mol	1.18 ± 0.00143	-10.1 kcal/mol	-10.8 ± 0.0290 kcal/mol	0.760 kcal/mol	22.3 nM	9 °C	ITC Ka, BRD4(1) (BRD4(1) [1]): 2.26 ± 0.121 106 M91; Selectivity for CBP over BRD4(1) (BRD4(1) [1]): 17-fold
Cc1noc(C)c1-c1ccc2c(c1)nc(CC(C)(C)C)n2CCN(C)C [Compound 8]	–	–	–	–	–	–	–	–	–	4.5 °C	IC50 (CBP [4]; [10]): 501 nM; ΔTm at 10 µM (BRD4(1) [5]): 3.2 °C
COc1ccc(CCc2nc3cc(-c4c(C)noc4C)ccc3n2CCN2CCOCC2)cc1F [Compound 33]	–	–	–	–	–	–	–	–	–	9.6 °C	Kd (BRD4(1) [1]; ITC Kd BRD4(1), 15 °C): 440 ± 25 nM; Selectivity for CBP over BRD4(1) (BRD4(1) [1]): 20-fold
COc1ccc2c(c1)N(CCCNC(=O)c1cccc3c1N[C@H](C)C(=O)N3)CCC2 [Compound 4]	–	–	–	–	–	–	–	–	–	–	Kd (CBP BRD): 390 nM
COc1ccc(CCc2nc3cc(-c4c(C)noc4C)ccc3n2C[C@H](C)N2CCOCC2)cc1F [Compound 63]	–	–	–	–	–	–	–	–	–	~10 °C	IC50 (CBP [4]; [10]): < 100 nM; Kd (BRD4(1) [1]; ITC Kd BRD4(1), 15 °C): 610 ± 54 nM; Selectivity for CBP over BRD4(1) (BRD4(1) [1]): 16-fold; Kd (CBP [2]; ITC Kd CBP, 15 °C): 39 ± 2.9 nM
Cc1noc(C)c1-c1ccc2c(c1)nc(CCc1ccccc1)n2CCN1CCNCC1 [Compound 19]	–	–	–	–	–	–	–	–	–	6.5 °C	IC50 (BRD4(1) [6]): 7500 nM; IC50 (CBP [4]; read-out: AlphaScreen IC50 CBP): 750 nM; ΔTm at 10 µM (BRD4(1) [5]): 4 °C
Cc1ccc(CCc2nc3cc(-c4c(C)noc4C)ccc3n2CCN2CCOCC2)cc1 [Compound 25]	0.987 ± 0.0033	-8.24 kcal/mol	-8.74 ± 0.0402 kcal/mol	0.501 kcal/mol	1.02 ± 0.00208	-9.63 kcal/mol	-9.70 ± 0.0399 kcal/mol	0.0674 kcal/mol	49.5 nM	7.4 °C	Kd (BRD4(1) [1]; ITC Ka, BRD4(1)): 546 nM
O=C(CCCCCCC(=O)Nc1ccccc1)NO [SAHA, reference compound]	–	–	–	–	–	–	–	–	–	–	FRAP half-time of fluorescence recovery (t1/2), GFP-tagged 3× CBP BRD ([7]; DMSO + SAHA, no BRD inhibitor): 0.79 s
Cc1noc(C)c1-c1ccc2c(c1)nc(CCn1ccc3ccccc31)n2C[C@H](C)N1CCOCC1 [Compound 61]	0.862 ± 0.00663	-8.09 kcal/mol	-9.21 ± 0.0912 kcal/mol	1.12 kcal/mol	1.01 ± 0.00517	-8.58 kcal/mol	-12.5 ± 0.0855 kcal/mol	3.94 kcal/mol	239 nM	~10 °C	IC50 (CBP [4]; [10]): < 100 nM; Kd (BRD4(1) [1]; ITC Ka, BRD4(1)): 685 nM; Kd (BRD4(1) [1]; ITC Kd BRD4(1), 15 °C): 530 ± 74 nM; Selectivity for CBP over BRD4(1) (BRD4(1) [1]): 20-fold; Kd (CBP [2]; ITC Kd CBP, 15 °C): 26 ± 2.6 nM
Cc1noc(C)c1-c1ccc2c(c1)nc(CCc1nc3ccccc3s1)n2CCN1CCOCC1 [Compound 35]	0.645 ± 0.00594	-8.10 kcal/mol	-9.34 ± 0.118 kcal/mol	1.240 kcal/mol	0.703 ± 0.00135	-9.94 kcal/mol	-9.30 ± 0.0342 kcal/mol	-0.638 kcal/mol	30.2 nM	–	Kd (BRD4(1) [1]; ITC Ka, BRD4(1)): 662 nM
COc1ccc(CCc2cc3cc(-c4c(C)noc4C)ccc3n2CCN2CCOCC2)cc1Cl [Compound 40]	–	–	–	–	–	–	–	–	–	2 °C	ΔTm at 10 µM (BRD4(1) [5]): < 1 °C
COc1ccc(CCc2nc3cc(-c4c(C)noc4C)ccc3n2CCN2CCOCC2)cc1 [Compound 26]	–	–	–	–	–	–	–	–	–	8.1 °C	–
Cc1noc(C)c1-c1ccc2c(c1)nc(CCc1ccccc1)n2CCN1CCSCC1 [Compound 20]	–	–	–	–	–	–	–	–	–	6.6 °C	IC50 (BRD4(1) [6]): 9500 nM; IC50 (CBP [4]; read-out: AlphaScreen IC50 CBP): 440 nM; ΔTm at 10 µM (BRD4(1) [5]): 3.9 °C
Cc1noc(C)c1-c1ccc2nc[nH]c2c1 [Compound 5]	–	–	–	–	–	–	–	–	–	–	BRD4(1) pIC50 (BRD4(1) [8]): 5.2; CBP pIC50 (CBP [9]): 5.4
Cc1noc(C)c1-c1ccc2c(c1)ncn2Cc1ccc(Cl)cc1 [Compound 7]	–	–	–	–	–	–	–	–	–	–	CBP pIC50 (CBP [9]): 5.7
Cc1noc(C)c1-c1ccc2c(c1)nc(CCc1ccccc1)n2CCN1CCC1 [Compound 14]	–	–	–	–	–	–	–	–	–	4.4 °C	IC50 (BRD4(1) [6]): 22000 nM; IC50 (CBP [4]; read-out: AlphaScreen IC50 CBP): 570 nM; ΔTm at 10 µM (BRD4(1) [5]): 2.6 °C
COc1ccc(CCc2nc3cc(-c4c(C)noc4C)ccc3n2C[C@@H](C)N2CCOCC2)cc1F [Compound 62]	0.859 ± 0.00961	-8.17 kcal/mol	-9.15 ± 0.128 kcal/mol	0.978 kcal/mol	1.08 ± 0.0029	-9.71 kcal/mol	-11.1 ± 0.0496 kcal/mol	1.37 kcal/mol	39.4 nM	–	Kd (BRD4(1) [1]; ITC Ka, BRD4(1)): 606 nM
Cc1noc(C)c1-c1ccc2c(c1)nc(CCn1ccc3ccccc31)n2C[C@@H](C)N1CCOCC1 [Compound 60]	0.84 ± 0.0113	-8.30 kcal/mol	-7.46 ± 0.127 kcal/mol	-0.844 kcal/mol	0.88 ± 0.00202	-10.0 kcal/mol	-9.59 ± 0.0406 kcal/mol	-0.420 kcal/mol	26.2 nM	–	Kd (BRD4(1) [1]; ITC Ka, BRD4(1)): 532 nM
Cc1noc(C)c1-c1ccc2c(c1)nc(CCc1ccccc1)n2CCN(C)C [Compound 12]	–	–	–	–	–	–	–	–	–	6.3 °C	IC50 (CBP [4]; [10]): 501 nM; ΔTm at 10 µM (BRD4(1) [5]): 2.9 °C
Cc1noc(C)c1-c1ccc2ncn(Cc3ccc(C#N)cc3)c2c1 [Compound 6]	–	–	–	–	–	–	–	–	–	–	FRAP half-time of fluorescence recovery (t1/2), GFP-tagged 3× CBP BRD ([7]; SAHA-treated, compound 0.1 μM): 0.74 s; BRD4(1) pIC50 (BRD4(1) [8]): 6.7; CBP pIC50 (CBP [9]): < 4.0
COC(Cn1c(CCc2ccccc2)nc2cc(-c3c(C)noc3C)ccc21)OC [Compound 13]	–	–	–	–	–	–	–	–	–	0.27 °C	IC50 (CBP [4]; read-out: AlphaScreen IC50 CBP): 460000 nM
Cc1noc(C)c1-c1ccc2c(c1)nc(CCc1cccc(F)c1)n2CCN1CCOCC1 [Compound 30]	–	–	–	–	–	–	–	–	–	7.1 °C	–
Cc1noc(C)c1-c1ccc(NC[C@H](C)N2CCOCC2)c([N+](=O)[O-])c1 [Compound 57]	1.04 ± 0.0101	-7.78 kcal/mol	-8.50 ± 0.108 kcal/mol	0.725 kcal/mol	0.983 ± 0.00535	-8.50 kcal/mol	-14.0 ± 0.0994 kcal/mol	5.72 kcal/mol	368 nM	–	Kd (BRD4(1) [1]; ITC Ka, BRD4(1)): 1210 nM
Cc1noc(C)c1-c1ccc2c(c1)nc(CCn1ccc3ccccc31)n2CCN1CCOCC1 [Compound 36]	–	–	–	–	–	–	–	–	–	8.9 °C	Kd (BRD4(1) [1]; ITC Kd BRD4(1), 15 °C): 660 ± 55 nM; Selectivity for CBP over BRD4(1) (BRD4(1) [1]): 22-fold; Kd (CBP [2]; ITC Kd CBP, 15 °C): 30 ± 2.1 nM
